Assay results published in patent US3975535A, “Anti-allergic-3-carboxy-isocoumarin compositions and methods of use” (Beecham Group Limited, priority 1973, dated 1976).

System: PCA responses
Assay: Rat Passive Cutaneous Anaphylaxis (PCA) test
Type: in vivo, Wistar rats
Procedure: All of the compounds prepared in the preceding Examples were submitted for biological testing. The test system was the Rat Passive Cutaneous Anaphylaxis (PCA) test described below in (ii).
i. Serum containing heat labile homocytotropic antibody was raised in rats by a method similar to that used by Mota. (I. Mota Immunology 1964, 7, 681).
Male Wistar rats of 250-300g. were injected intraperitoneally with 0.5 of Bordatella pertussis vaccine (containing 4 × 10^10 dead organism per ml) and subcutaneously with 0.5ml of an emulsion of 100mg. of ovalbumin in 2ml of saline and 3ml of incomplete Freunds' adjuvant. Rats were bled by cardiac puncture on day 18, the blood was pooled and separated and serum stored at -20° and thawed only once before use.
ii. The P.C.A. test was similar to that described by Ovary and Bier (A. Ovary and O. E. Bier, Proc. Soc. Exp. Biol. Med. 1952, 81, 584) and Goose and Blair (J. Goose and AMJ. N. Blair, Immunology 1969, 16, 769).
0.1ml of each of six twofold serial dilutions of the serum in 0.9% saline were injected intradermally into separate sites on the shaved dorsal surface of 250-350g. Wistar rats. 72 hours later the animals were challenged by i.v. injection of 0.3ml of 1% ovalbumin mixed with 0.1ml of a 5% solution of pontamine sky blue dye both in isotonic saline buffered with pH. 7.2 Sorenson buffer (P.B.S.). The rats were killed after 20 minutes and the diameter of the blue wheals at the antibody injection sites were measured. The starting dilution of the serum was adjusted so that there was no response, after challenge, at the site of injection of the highest dilution and a maximum response at the lowest dilution. Typically, six twofold serial dilutions of the serum from 1/4 to 1/128 were used.
Compounds were tested for their ability to reduce the diameter of the wheals at the injection sites of dilutions of antibody which on all the controls have less than maximum response. Amounts of the compounds were administered to rats each amount to a test group of six animals at a specified time prior to intravenous challenge with ovalbumin. The diameters of the blue wheals which developed on the tests group of animals were compared with those on a control group of six animals treated in the same way as the test group, but which had not received the compound under test.
% Inhibition of P.C.A. = 100 (1 - a/b)
a = The mean of the sum of the diameters of the wheals produced in the test group of animals at those antibody sites where all the control group of animals gave less than maximum response.
b = The mean of the sum of diameters of the wheals produced in the control group of animals at those antibody sites where all the animals in the group gave less than maximum response.
The preferred method of administration was a solution of the test compound dissolved in pH 7.2 buffer and neutralised with sodium bicarbonate.

[1] = iv, time 0 mins prior to i.v. ovalbumin challenge
[2] = iv, time 30 mins prior to i.v. ovalbumin challenge
[3] = first dose pair, only one time (0) printed for the whole line
[4] = second dose pair, time not printed separately
[5] = iv, time 60 mins prior to i.v. ovalbumin challenge
[6] = iv, time 10 mins prior to i.v. ovalbumin challenge

| SMILES | inhibition at 25 mg/kg [1] [%] | inhibition at 25 mg/kg [2] [%] | inhibition at 100 mg/kg [1] [%] | inhibition at 100 mg/kg [2] [%] | also measured |
| --- | --- | --- | --- | --- | --- |
| O=C(O)c1cc2ccccc2c(=O)o1 [Example 1, Isocoumarin-3-carboxylic acid] | 29 | -13 | 62 | 16 |  |
| Cc1c(C(=O)O)oc(=O)c2ccccc12 [Example 2, 4-Methylisocoumarin-3-carboxylic acid] | -3 | 0 | 41 | 10 |  |
| Cc1cccc2cc(C(=O)O)oc(=O)c12 [Example 3, 8-Methylisocoumarin-3-carboxylic acid] |  |  |  |  | inhibition at 25 mg/kg [3]: 44%; inhibition at 25 mg/kg [4]: 15%; inhibition at 100 mg/kg [3]: 66%; inhibition at 100 mg/kg [4]: 28% |
| Cc1c(C(=O)O)oc(=O)c2c(C)cccc12 [Example 4, 4,8-Dimethylisocoumarin-3-carboxylic acid] | 10 | 8 | 12 | 48 |  |
| COc1ccc2cc(C(=O)O)oc(=O)c2c1 [Example 5, 7-Methoxyisocoumarin-3-carboxylic acid] | 9 |  | 9 |  | inhibition at 25 mg/kg [5]: 4%; inhibition at 100 mg/kg [5]: 55% |
| O=C(O)c1cc2ccc(Br)cc2c(=O)o1 [Example 6, 7-Bromoisocoumarin-3-carboxylic acid] | 26 |  | 39 |  | inhibition at 25 mg/kg [5]: 39%; inhibition at 100 mg/kg [5]: 0% |
| Cc1cc2c(C)c(C(=O)O)oc(=O)c2cc1C [Example 7, 4,6,7-Trimethylisocoumarin-3-carboxylic acid monohydrate] | 10 | 39 | 15 | 49 |  |
| COc1cc2cc(C(=O)O)oc(=O)c2cc1OC [Example 8, 6,7-Dimethoxyisocoumarin-3-carboxylic acid] | 64 | 24 | 84 | 24 |  |
| O=C(O)c1cc2ccccc2c(=O)[nH]1 [Example 9, Isocarbostyril-3-carboxylic acid] | 21 | 15 | 36 | 25 |  |
| Cc1c(C(=O)O)[nH]c(=O)c2ccccc12 [Example 10, 4-Methylisocarbostyril-3-carboxylic acid] | 12 | -13 | 26 | 21 |  |
| COc1cc2cc(C(=O)O)[nH]c(=O)c2cc1OC [Example 11, 6,7-Dimethoxyisocarbostyril-3-carboxylic acid] | 11 | 2 | 38 | 17 |  |
| O=C(O)c1cc2ccccc2c(=O)s1 [Example 12, 2-Thiaisocoumarin-3-carboxylic acid] | 0 |  | 22 |  | inhibition at 25 mg/kg [5]: 4%; inhibition at 100 mg/kg [5]: 14% |
| Cc1c(C(=O)O)sc(=O)c2ccccc12 [Example 13, 4-Methyl-2-thiaisocoumarin-3-carboxylic acid] | -6 |  | 6 |  | inhibition at 25 mg/kg [5]: 6%; inhibition at 100 mg/kg [5]: 19% |
| COc1cc2cc(C(=O)O)sc(=O)c2cc1OC [Example 14, 6,7-Dimethoxy-2-thiaisocoumarin-3-carboxylic acid] |  |  |  |  | inhibition at 12.5 mg/kg (iv, Dose 12.5 mg/Kg, time 10 mins prior to i.v. ovalbumin challenge): 28%; inhibition at 25 mg/kg [6]: 47%; inhibition at 50 mg/kg (iv, Dose 50 mg/Kg, time 10 mins prior to i.v. ovalbumin challenge): 79%; inhibition at 100 mg/kg [6]: 87% |
| COc1ccc2cc(C(=O)O)oc(=O)c2c1OC [Example 15, 7,8-Dimethoxyisocoumarin-3-carboxylic acid] |  | 12 |  | 29 | inhibition at 25 mg/kg [6]: 64%; inhibition at 100 mg/kg [6]: 63% |
